Measured values taken from PubChem BioAssay AID1963436 (Molecular Pharmacology Branch, DTP, NCI, 2024).
pIC50: −log10 of the molar value.

Test system: OVCAR-5 complex spheroid (HUVEC/MSC), viability % T/C
Assay: Anticancer human tumor OVCAR-5 cell line growth inhibition [Asc];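 also: spheroids exposed to agents for 7 days before readout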;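 as to viability, T/C: 100% = DMSO vehicle-treated wells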
Conditions: for pIC50: curve of first compound; for viability, T/C: stronger effect = lower value
In short: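 Tumor cells were grown as complex spheroids with human endothelial cells (HUVEC) and human mesenchymal stem cells as stroma. Agents were tested alone and in combination, in half-log steps down from the clinical Cmax, or from 10 microM where Cmax was unknown.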

[1] = second compound 0.03 µM, first compound 0.0316 µM
[2] = second compound 0.03 µM, first compound 0.1 µM
[3] = second compound 0.03 µM, first compound 0.316 µM
[4] = second compound 0.03 µM, first compound 1 µM
[5] = second compound 0.03 µM, first compound 3.16 µM
[6] = second compound 0.03 µM, first compound 10 µM
[7] = second compound 0.0949 µM, first compound 0.0316 µM
[8] = second compound 0.0949 µM, first compound 0.1 µM
[9] = second compound 0.0949 µM, first compound 0.316 µM
[10] = second compound 0.0949 µM, first compound 1 µM
[11] = second compound 0.0949 µM, first compound 3.16 µM
[12] = second compound 0.0949 µM, first compound 10 µM
[13] = second compound 0.3 µM, first compound 0.0316 µM
[14] = second compound 0.3 µM, first compound 0.1 µM
[15] = second compound 0.3 µM, first compound 0.316 µM
[16] = second compound 0.3 µM, first compound 1 µM
[17] = second compound 0.3 µM, first compound 3.16 µM
[18] = second compound 0.3 µM, first compound 10 µM
[19] = second compound 0.949 µM, first compound 0.0316 µM
[20] = second compound 0.949 µM, first compound 0.1 µM
[21] = second compound 0.949 µM, first compound 0.316 µM
[22] = second compound 0.949 µM, first compound 1 µM
[23] = second compound 0.949 µM, first compound 3.16 µM
[24] = second compound 0.949 µM, first compound 10 µM
[25] = second compound 3 µM, first compound 0.0316 µM
[26] = second compound 3 µM, first compound 0.1 µM
[27] = second compound 3 µM, first compound 0.316 µM
[28] = second compound 3 µM, first compound 1 µM
[29] = second compound 3 µM, first compound 3.16 µM
[30] = second compound 3 µM, first compound 10 µM

Structure (SMILES) | pIC50 (second compound 0.03 µM) | pIC50 (second compound 0.0949 µM) | pIC50 (second compound 0.3 µM) | pIC50 (second compound 0.949 µM) | pIC50 (second compound 3 µM) | viability, T/C [1] | viability, T/C [2] | viability, T/C [3] | viability, T/C [4] | viability, T/C [7] | viability, T/C [8] | viability, T/C [9] | viability, T/C [10] | viability, T/C [13] | viability, T/C [14] | viability, T/C [15] | viability, T/C [16] | viability, T/C [19] | viability, T/C [20] | viability, T/C [21] | also measured
C=C(F)C(=O)N1CCN(c2nc(OCC3CCCN3C)nc3c2CCN(c2cccc4cccc(Cl)c24)C3)CC1CC#N (stereo not given) + CCN1C(C(=O)NC23CCC(C(=O)O)(CC2)CC3)C(c2cccc(Cl)c2F)C2(C(=O)Nc3cc(Cl)ccc32)C12CCCCC2 | 5.86 | 5.90 | 5.89 | 5.89 | 5.89 | 108% | 94.2% | 90.1% | 67.2% | 102% | 104% | 87.7% | 62.4% | 101% | 122% | 101% | 62.7% | 109% | 110% | 105% | viability, T/C [5]: 9.46%; viability, T/C [6]: 0.18%; viability, T/C [11]: 9.56%; viability, T/C [12]: 0.18%; viability, T/C [17]: 7.84%; viability, T/C [18]: 0.2%; viability, T/C [22]: 60.4%; viability, T/C [23]: 11.3%; viability, T/C [24]: 0.18%; viability, T/C [25]: 115%; viability, T/C [26]: 112%; viability, T/C [27]: 104%; viability, T/C [28]: 61.8%; viability, T/C [29]: 10.2%; viability, T/C [30]: 1.38%
C=CC(=O)N1CCN(c2nc(=O)n(-c3c(C)ccnc3C(C)C)c3nc(-c4c(O)cccc4F)c(F)cc23)C(C)C1 (stereo not given) + CCN1C(C(=O)NC23CCC(C(=O)O)(CC2)CC3)C(c2cccc(Cl)c2F)C2(C(=O)Nc3cc(Cl)ccc32)C12CCCCC2 | < 5.00 | < 5.00 | < 5.00 | < 5.00 | < 5.00 | 112% | 111% | 120% | 125% | 110% | 111% | 106% | 112% | 105% | 119% | 112% | 121% | 109% | 118% | 102% | viability, T/C [5]: 113%; viability, T/C [6]: 104%; viability, T/C [11]: 116%; viability, T/C [12]: 92.1%; viability, T/C [17]: 118%; viability, T/C [18]: 116%; viability, T/C [22]: 103%; viability, T/C [23]: 109%; viability, T/C [24]: 106%; viability, T/C [25]: 116%; viability, T/C [26]: 118%; viability, T/C [27]: 122%; viability, T/C [28]: 111%; viability, T/C [29]: 111%; viability, T/C [30]: 111%
COc1c(OCCCN2CCOCC2)ccc2c3n(c(=NC(=O)c4cnc(N)nc4)nc12)CCN3 + CCN1C(C(=O)NC23CCC(C(=O)O)(CC2)CC3)C(c2cccc(Cl)c2F)C2(C(=O)Nc3cc(Cl)ccc32)C12CCCCC2 | 7.44 | 7.53 | 7.35 | 7.42 | 7.47 | 49.8% | 29.9% | 20% | 11.9% | 46.3% | 28.1% | 17.8% | 9.62% | 56.6% | 31.1% | 17.8% | 10.5% | 54.8% | 24.8% | 17.3% | viability, T/C (second compound 0.03 µM, first compound 0.00316 µM): 82.4%; viability, T/C (second compound 0.03 µM, first compound 0.01 µM): 79.6%; viability, T/C (second compound 0.0949 µM, first compound 0.00316 µM): 91.6%; viability, T/C (second compound 0.0949 µM, first compound 0.01 µM): 75.8%; viability, T/C (second compound 0.3 µM, first compound 0.00316 µM): 87.8%; viability, T/C (second compound 0.3 µM, first compound 0.01 µM): 82.3%; viability, T/C (second compound 0.949 µM, first compound 0.00316 µM): 79.4%; viability, T/C (second compound 0.949 µM, first compound 0.01 µM): 75.1%; viability, T/C [22]: 8.43%; viability, T/C (second compound 3 µM, first compound 0.00316 µM): 89.7%; viability, T/C (second compound 3 µM, first compound 0.01 µM): 83.9%; viability, T/C [25]: 51%; viability, T/C [26]: 22%; viability, T/C [27]: 15.2%; viability, T/C [28]: 8.71%
